Experimental data as given in patent publication US20130252930A1 (BIOMARIN PHARMACEUTICAL INC., priority 2010, published 2013).
Like-named read-outs stand apart in the source and are kept apart here.

Columns and labels:
[1] = Human liver microsome stability assay (Biological Example 8b); settings: liver microsomes, pH 7.4
Experimental: The reaction was started with addition of excess NADPH (5 mg/mL, 15 μL in 0.1 M potassium phosphate buffer, 1.0 mM EDTA, pH 7.4), the total volume is 45 μL (compound final concentration was 1 μM). […] 50 μL of the supernatant was transferred from each well into a 96-well sample plate containing 50 μL of ultra-pure water (Millipore) for LC-MS/MS analysis.

[2] = molecular target: T1, CYP17 (human testicular microsome) (Homo sapiens, UniProt P05093); experiment: CYP17 enzymatic assay (IC50) (Biological Example 4); type: biochemical
T1 construct: using microsomal fraction from human testis (Celsis Cat #S00110) as the enzyme source; tissue Celsis S00110; host or cells: human testis microsomal fraction
T1 sequence (P05093 1-508): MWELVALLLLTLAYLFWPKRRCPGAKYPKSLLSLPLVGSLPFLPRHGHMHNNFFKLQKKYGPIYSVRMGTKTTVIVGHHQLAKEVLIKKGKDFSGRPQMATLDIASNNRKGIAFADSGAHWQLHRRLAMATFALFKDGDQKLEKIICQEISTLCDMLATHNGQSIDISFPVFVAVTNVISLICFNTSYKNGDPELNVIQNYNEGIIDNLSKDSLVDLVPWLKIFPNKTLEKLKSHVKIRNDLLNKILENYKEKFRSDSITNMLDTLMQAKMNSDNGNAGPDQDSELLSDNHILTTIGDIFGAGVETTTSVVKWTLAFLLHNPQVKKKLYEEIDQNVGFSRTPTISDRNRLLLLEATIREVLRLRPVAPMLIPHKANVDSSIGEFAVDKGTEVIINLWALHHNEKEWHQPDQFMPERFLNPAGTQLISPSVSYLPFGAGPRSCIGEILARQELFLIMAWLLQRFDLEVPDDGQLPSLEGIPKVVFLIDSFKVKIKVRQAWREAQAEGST

[3] = molecular target: T1, CYP17 (human testicular microsome); experiment: CYP17 enzymatic assay (% inhibition at 1 nM) (Biological Example 12); type: biochemical; settings: compound at 1 nM
[4] = molecular target: T1, CYP17 (human testicular microsome); experiment: CYP17 enzymatic assay (% inhibition at 10 nM), version 1 (Biological Example 5); type: biochemical; settings: compound at 10 nM, read-out: CYP17 enzymatic assay % inhibition at 10 nM (Biological Example No. 5)
[5] = human testicular microsome, read-out: Biological Example No. 4: CYP17 enzymatic assay IC50
[6] = read-out: CYP17 enzymatic assay % inhibition at 1 nM (Biological Example No. 12)
[7] = human testicular microsome, read-out: CYP17 enzymatic assay IC50 (Biological Example No. 4)
[8] = read-out: Biological Example No. 12: CYP17 enzymatic assay % inhibition at 1 nM

Question: Which half-life at 1 μM [1] does the source give for `C[C@]12CC[C@H](O)CC1=CC[C@@H]1[C@@H]2CC[C@]2(C)C(c3cnccc3F)=CC[C@@H]12` [Cmpd 285] here?
Answer: 1 to 50 min

Question: What about the IC50 [2, 5] of the same compound?
Answer: < 0.011 µM

Question: What does the source list for `C[C@]12CCC3C(CC=C4C[C@H](O)CC[C@@]43C)C1=CC=C2c1cccnc1` (stereo partly drawn) [Compound 199, (3R,10R,13S)-10,13-dimethyl-17-(pyridin-3-yl)-2,3,4,7,8,9,10,11,12,13-decahydro-1H-cyclopenta[a]phenanthren-3-ol]?
Answer: half-life at 1 μM [1]: 1 to 50 min; inhibition at 0.001 µM [3, 6]: > 50%; IC50 [2, 7]: < 0.011 µM

Question: What does the source list for `C[C@]12CCC3C(CC(O)C45CC4CC[C@]35C)C1=CC=C2c1cccnc1` (stereo partly drawn) [Compound 200, (3aR,5aS)-3a,5a-dimethyl-6-(pyridin-3-yl)-1,1a,2,3,3a,3b,4,5,5a,8b,9,10-dodecahydrocyclopenta[a]cyclopropa[2,3]cyclopenta[1,2-f]naphthalen-10-ol]?
Answer: half-life at 1 μM [1]: 1 to 50 min; inhibition at 0.001 µM [3, 6]: > 50%; IC50 [2, 7]: < 0.011 µM

Question: With `CC(=O)N[C@@H]1CC[C@@]2(C)C(CCC3C2CC[C@]2(C)C(c4cccnc4)=CCC32)C1` (stereo partly drawn) [Compound 215, N-((3R,10S,13S)-10,13-dimethyl-17-(pyridin-3-yl)-2,3,4,5,6,7,8,9,10,11,12,13,14,15-tetradecahydro-1H-cyclopenta[a]phenanthren-3-yl)acetamide] as the compound, how does the half-life at 1 μM [1] read?
Answer: 1 to 50 min

Question: What about the inhibition at 0.001 µM [3, 6] of the same compound?
Answer: > 50%

Question: What about the IC50 [2, 7] of the same compound?
Answer: < 0.011 µM

Question: Which results are given for `C[C@]12CC[C@@H](NC(=O)C3CC3)CC1CCC1C2CC[C@]2(C)C(c3cccnc3)=CCC12` (stereo partly drawn) [Compound 220, N-((3R,10S,13S)-10,13-dimethyl-17-(pyridin-3-yl)-2,3,4,5,6,7,8,9,10,11,12,13,14,15-tetradecahydro-1H-cyclopenta[a]phenanthren-3-yl)cyclopropanecarboxamide]?
Answer: half-life at 1 μM [1]: 1 to 50 min; inhibition at 0.001 µM [3, 6]: > 50%; IC50 [2, 7]: < 0.011 µM

Question: For `C[C@]12CC[C@@H](NC(=O)C3CC3)CC1=CCC1C2CC[C@]2(C)C(c3cccnc3)=CCC12` (stereo partly drawn) [Compound 224, N-((3R,10R,13S)-10,13-dimethyl-17-(pyridin-3-yl)-2,3,4,7,8,9,10,11,12,13,14,15-dodecahydro-1H-cyclopenta[a]phenanthren-3-yl)cyclopropanecarboxamide], which half-life at 1 μM [1] is on record?
Answer: 1 to 50 min

Question: What about the inhibition at 0.001 µM [3, 6] of the same compound?
Answer: > 50%

Question: And the IC50 [2, 7]?
Answer: < 0.011 µM

Question: What does the source list for `COc1cncc(C2=CC[C@H]3[C@@H]4CC=C5C[C@H](NC(=O)C6CC6)CC[C@]5(C)[C@H]4CC[C@]23C)c1` [Compound 230, N-((3R,10R,13S)-17-(5-methoxypyridin-3-yl)-10,13-dimethyl-2,3,4,7,8,9,10,11,12,13,14,15-dodecahydro-1H-cyclopenta[a]phenanthren-3-yl)cyclopropanecarboxamide]?
Answer: half-life at 1 μM [1]: 1 to 50 min; inhibition at 0.001 µM [3, 6]: > 50%; IC50 [2, 7]: < 0.011 µM

Question: For `CCCC(=O)N[C@@H]1CC[C@@]2(C)C(=CC[C@@H]3[C@@H]2CC[C@]2(C)C(c4cccnc4)=CC[C@@H]32)C1` [Compound 235, N-((3R,10R,13S)-10,13-dimethyl-17-(pyridin-3-yl)-2,3,4,7,8,9,10,11,12,13,14,15-dodecahydro-1H-cyclopenta[a]phenanthren-3-yl)butyramide], which half-life at 1 μM [1] is on record?
Answer: 1 to 50 min

Question: And the inhibition at 0.001 µM [3, 6]?
Answer: > 50%

Question: And the IC50 [2, 7]?
Answer: < 0.011 µM

Question: With `C[C@]12CCC(NC(=O)C3CCC3)CC1=CCC1C2CC[C@]2(C)C(n3ccnc3)=CCC12` (stereo partly drawn) [Compound 240, N-((10R,13S)-17-(1H-imidazol-1-yl)-10,13-dimethyl-2,3,4,7,8,9,10,11,12,13,14,15-dodecahydro-1H-cyclopenta[a]phenanthren-3-yl)cyclobutanecarboxamide] as the compound, how does the half-life at 1 μM [1] read?
Answer: 1 to 50 min

Question: What about the inhibition at 0.001 µM [3, 6] of the same compound?
Answer: > 50%

Question: What about the IC50 [2, 7] of the same compound?
Answer: < 0.011 µM

Question: What does the source list for `C[C@]1(O)CC[C@@]2(C)C(CCC3C2CC[C@]2(C)C(c4cccnc4)=CCC32)C1` (stereo partly drawn) [Compound 254, (3S,10S,13S)-3,10,13-trimethyl-17-(pyridin-3-yl)-2,3,4,5,6,7,8,9,10,11,12,13,14,15-tetradecahydro-1H-cyclopenta[a]phenanthren-3-ol]?
Answer: half-life at 1 μM [1]: 1 to 50 min; inhibition at 0.001 µM [3, 6]: > 50%; IC50 [2]: < 0.011 µM

Question: Which half-life at 1 μM [1] does the source give for `C[C@]1(O)CC[C@@]2(C)C(CCC3C4=CC=C(c5cccnc5)[C@@]4(C)CCC32)C1` (stereo partly drawn) [Compound 259, (3S,10S,13S)-3,10,13-trimethyl-17-(pyridin-3-yl)-2,3,4,5,6,7,8,9,10,11,12,13-dodecahydro-1H-cyclopenta[a]phenanthren-3-ol] here?
Answer: 1 to 50 min

Question: And the inhibition at 0.001 µM [3, 6]?
Answer: 10 to 50%

Question: And the IC50 [2]?
Answer: < 0.011 µM

Question: Which results are given for `C[C@]12CC[C@H](O)CC1=CCC1C2CC[C@]2(C)C(c3cncc(F)c3)=CCC12` (stereo partly drawn) [Compound 274, (3S,10R,13S)-17-(5-fluoropyridin-3-yl)-10,13-dimethyl-2,3,4,7,8,9,10,11,12,13,14,15-dodecahydro-1H-cyclopenta[a]phenanthren-3-ol]?
Answer: half-life at 1 μM [1]: > 50 min; inhibition at 0.001 µM [3, 8]: > 50%; IC50 [2, 5]: < 0.011 µM

Question: With `C[C@]12CC[C@H](O)CC1=CCC1C2CC[C@]2(C)C(c3ccc(F)nc3)=CCC12` (stereo partly drawn) [Compound 276, (3S,10R,13S)-17-(6-fluoropyridin-3-yl)-10,13-dimethyl-2,3,4,7,8,9,10,11,12,13,14,15-dodecahydro-1H-cyclopenta[a]phenanthren-3-ol] as the compound, how does the half-life at 1 μM [1] read?
Answer: 1 to 50 min

Question: And the inhibition at 0.001 µM [3, 8]?
Answer: 10 to 50%

Question: And the IC50 [2, 5]?
Answer: > 0.025 µM

Question: For `C[C@]12CC[C@H](O)CC1=CCC1C2CC[C@]2(C)C(c3cncc(Cl)c3)=CCC12` (stereo partly drawn) [Compound 280, (3S,10R,13S)-17-(5-chloropyridin-3-yl)-10,13-dimethyl-2,3,4,7,8,9,10,11,12,13,14,15-dodecahydro-1H-cyclopenta[a]phenanthren-3-ol], which half-life at 1 μM [1] is on record?
Answer: 1 to 50 min

Question: And the inhibition at 0.001 µM [3, 8]?
Answer: > 50%

Question: And the IC50 [2, 5]?
Answer: < 0.011 µM

Question: With `C[C@]12CC[C@H](O)CC1=CCC1C2CC[C@]2(C)C(c3cncc(N)c3)=CCC12` (stereo partly drawn) [Compound 283, (3S,10R,13S)-17-(5-aminopyridin-3-yl)-10,13-dimethyl-2,3,4,7,8,9,10,11,12,13,14,15-dodecahydro-1H-cyclopenta[a]phenanthren-3-ol] as the compound, how does the half-life at 1 μM [1] read?
Answer: > 50 min

Question: And the inhibition at 0.001 µM [3, 8]?
Answer: > 50%

Question: What about the IC50 [2, 5] of the same compound?
Answer: < 0.011 µM

Question: What does the source list for `CC1(C)C2=CCC3C4=CC=C(c5cccnc5)[C@@]4(C)CCC3[C@@]2(C)CCC1O` (stereo partly drawn) [Compound 298, (10R,13S)-4,4,10,13-tetramethyl-17-(pyridin-3-yl)-2,3,4,7,8,9,10,11,12,13-decahydro-1H-cyclopenta[a]phenanthren-3-ol]?
Answer: half-life at 1 μM [1]: 1 to 50 min; inhibition at 0.001 µM [3, 6]: 10 to 50%; IC50 [2, 7]: > 0.025 µM

Question: Which half-life at 1 μM [1] does the source give for `C[C@]12CCC3C(CC(F)[C@]4(O)C[C@@H](O)CC[C@]34C)C1CC=C2c1cccnc1` (stereo partly drawn) [Compound 322, (3S,5S,10R,13S)-6-fluoro-10,13-dimethyl-17-(pyridin-3-yl)-2,3,4,5,6,7,8,9,10,11,12,13,14,15-tetradecahydro-1H-cyclopenta[a]phenanthrene-3,5-diol] here?
Answer: 1 to 50 min

Question: What about the inhibition at 0.001 µM [3, 8] of the same compound?
Answer: > 50%

Question: And the IC50 [2, 5]?
Answer: < 0.011 µM

Question: What does the source list for `C[C@]12CCC3C(CC(F)[C@@]4(O)C[C@@H](O)CC[C@]34C)C1CC=C2c1cccnc1` (stereo partly drawn) [Compound 323, (3S,5R,10R,13S)-6-fluoro-10,13-dimethyl-17-(pyridin-3-yl)-2,3,4,5,6,7,8,9,10,11,12,13,14,15-tetradecahydro-1H-cyclopenta[a]phenanthrene-3,5-diol]?
Answer: half-life at 1 μM [1]: 1 to 50 min; inhibition at 0.001 µM [3, 8]: > 50%; IC50 [2, 5]: < 0.011 µM

Question: Which half-life at 1 μM [1] does the source give for `CC(=O)N[C@@H]1CC[C@@]2(C)C(=CC[C@@H]3[C@@H]2CC[C@]2(C)C(c4cncc(F)c4)=CC[C@@H]32)C1` [Compound 427, N-((3R,10R,13S)-17-(5-fluoropyridin-3-yl)-10,13-dimethyl-2,3,4,7,8,9,10,11,12,13,14,15-dodecahydro-1H-cyclopenta[a]phenanthren-3-yl)acetamide] here?
Answer: 1 to 50 min

Question: What about the inhibition at 0.001 µM [3, 8] of the same compound?
Answer: > 50%

Question: What about the IC50 [2, 5] of the same compound?
Answer: < 0.011 µM

Question: With `C[C@]12CC[C@H](O)C[C@@H]1CC[C@@H]1[C@@H]2CC[C@]2(C)C(n3ccnn3)=CC[C@@H]12` [Compound 451, (3S,5S,8R,9S,10S,13S,14S)-10,13-dimethyl-17-(1H-1,2,3-triazol-1-yl)-2,3,4,5,6,7,8,9,10,11,12,13,14,15-tetradecahydro-1H-cyclopenta[a]phenanthren-3-ol] as the compound, how does the inhibition at 0.001 µM [3, 6] read?
Answer: > 50%

Question: What about the inhibition at 0.01 µM [4] of the same compound?
Answer: > 80%

Question: And the IC50 [2, 7]?
Answer: < 0.011 µM

Question: For `C#C[C@]1(O)CC[C@@]2(C)C(CCC3C2CC[C@]2(C)C(c4cccnc4)=CCC32)C1` (stereo partly drawn) [Compound 474, (3S,10S,13S)-3-ethynyl-10,13-dimethyl-17-(pyridin-3-yl)-2,3,4,5,6,7,8,9,10,11,12,13,14,15-tetradecahydro-1H-cyclopenta[a]phenanthren-3-ol], which half-life at 1 μM [1] is on record?
Answer: > 50 min

Question: What about the inhibition at 0.001 µM [3, 6] of the same compound?
Answer: 10 to 50%

Question: And the IC50 [2, 7]?
Answer: > 0.025 µM
